Test results as given in patent US20230277612A1, “SAPONIN DERIVATIVES FOR USE IN MEDICINE” (priority 2020, published 2023).
Read-outs that look alike come from different tables or passages of the source. [BNA] = bridged nucleic acid sugar (2',4'-BNA), type not further given; d = 2'-deoxy (DNA)

Columns and labels:
HSP27 mRNA [1] = assay: HSP27 mRNA gene silencing analysis in SK-BR-3 cells; assay type: cell-based; conditions: in the presence of 4000 nM or 4829 nM SO1861-Ald-EMCH; read-out: IC50(SK-BR3) HSP27 gene silencing
Excerpt: (§1) RNA from cells was isolated and analysed according to standard protocols (Biorad). qPCR primers that were used are indicated in Table A10.

HeLa cells [2] = assay: cells; assay type: cell-based
Procedure: (§2) (FIGS. 66a and 66B). Next toxicity was determined, for this the modified saponins were titrated on HeLa and A431 cells. […] Next toxicity was determined, for this the modified saponins were titrated on HeLa and A431 cells.

A2058 (EGFR−) cells = assay: Saponin derivative titration in presence and absence of […] EGFdianthin, cell viability; assay type: cell-based
HeLa (EGFR+) cells = assay: Saponin titration in presence and absence of […] EGFdianthin, cell viability; assay type: cell-based; conditions: for IC50: read-out: General toxicity (IC50 / highest concentration)
Procedure: To extend this test, saponins from other sources were analyzed. A saponin purified from a root extract of Gypsophila elegans M.Bieb. […] FIG. 63C).

[3] = Critical micellar concentration (CMC) by ANS fluorescence; assay type: physicochemical; conditions: for CMC value: PBS
In short: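 Saponin solutions (dry-weight concentrations 1–1400 μM) in purified water or Dulbecco's PBS+/+ were mixed with ANS, 75.86 μM, 6 μg per sample. ANS fluorescence was read at 355 nm excitation and 460 nm emission. CMC was taken from the rise in ANS fluorescence yield as the dye partitions into micelles.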

[4] = tested on: EGFR expressing cells (A431); assay: Saponin titration on fixed 10 pM cetuximab-saporin, cell viability (MTS); assay type: cell-based; conditions: without cetuximab-saporin
HeLa cells [5] = assay: Pilot cell-based bioassay: 10 μg/ml saponin with or without 1.5 pM dianthin-EGF, 72 h, relative cell viability; design: key to Cell killing activity (+ or −): Cell killing activity (+ or −); Cell killing activity (+ or −); conditions: for Cell viability after 72 h: 10 microgram/ml saponin + […] dianthin-EGF, HeLa cells
Procedure: HeLa cells were incubated for 72 h with the following constructs and cell viability before and after the 72 h-incubation was assessed. In the experiments, cells were exposed to 1.5 pM dianthin-EGF conjugate. A negative control were cells incubated with buffer vehicle and 10 microgram/ml saponin, without dianthin-EGF. Cell viability was set to 100% for the control in which both saponin and EGF-dianthin were omitted. […] Cell viability after 72 h was essentially 0%. For the chemically modified saponin variants, 10 microgram/ml saponin was tested in combination with 1.5 pM dianthin-EGF.

[6] = tested on: EGFR expressing cells (A431); assay: Saponin titration on fixed 10 pM EGFdianthin, cell viability (MTS); assay type: cell-based; conditions: without EGFdianthin
A431 (EGFR++) cells = assay: Saponin derivative titration in presence and absence of […] EGFdianthin, cell viability; assay type: cell-based; conditions: for IC50: read-out: Toxicity as single compound
A431 cells = assay: cells; assay type: cell-based; conditions: Homo sapiens
Procedure: as §2

[7] = tested on: EGFR expressing cells (HeLa); assay type: cell-based; conditions: HeLa; + 5 pM EGFdianthin; read-out: IC50 endosomal escape enhancing activity
[8] = pH dependent hydrolysis of the hydrazone bond (HCl solution pH 3, MALDI-TOF-MS); assay type: physicochemical; conditions: HCl solution at pH 3
human red blood cells = assay: cells; assay type: cell-based; conditions: Homo sapiens, Erythrocyte
HSP27 mRNA [9] = assay: HSP27 mRNA gene silencing analysis in A431 cells; assay type: cell-based; conditions: SO1861-Ald-EMCH alone
Excerpt: as §1

[10] = 10 μg/ml SO1861 or SO1861-derivative + […] EGFdianthin
[11] = 10 μg/ml SO1861 or SO1861-derivative alone

HSP27BNA: antisense BNA oligo against HSP27 mRNA, 5′-GGCacagccagtgGCG-3′ (antisense GGCACAGCCAGTGGCG; sugars from the 5' end [BNA]3 d10 [BNA]3, backbone and methylation of C not given here)
IC50 (HSP27 mRNA [1]): 0.002 µM

CC(=O)OC1C(C)OC(OC2C(C)OC(OC(=O)[C@]34CCC(C)(C)CC3C3=CCC5[C@@]6(C)CC[C@H](OC7OC(C(=O)O)C(O)C(OC8OCC(O)C(O)C8O)C7OC7OC(CO)C(O)C(O)C7O)[C@@](C)(C=O)C6CC[C@@]5(C)[C@]3(C)C[C@H]4O)C(OC3OC(C)C(OC4OCC(O)C(OC5OC(CO)C(O)C(O)C5O)C4O)C(O)C3O)C2O)C(O)C1OC1OCC(O)C(O)C1O (some centres unmarked) [SO1861, reference compound]
IC50 (HeLa cells [2]; saponin alone, read-out: IC50 toxicity): 1000 nM | Toxicity as single compound (A2058 (EGFR−) cells; without EGFdianthin): strong cell viability reduction | General toxicity (IC50 / highest concentration) (HeLa (EGFR+) cells; in absence of EGFdianthin): strong cell viability reduction | CMC value [3]: 185 µM | CMC ([3]; Table A7, determined in PBS): 185 ± 19 µM | Cell killing activity of saponin alone [4]: no cell killing activity | Cell killing activity (+ or −) (HeLa cells [5]; [10]): + | Cell killing activity (+ or −) (HeLa cells [5]; [11]): − | Cell viability after 72 h (HeLa cells [5]): ~0% | Cell killing activity of saponin alone [6]: no cell killing activity | Toxicity as single compound (A431 (EGFR++) cells; A431, without EGFdianthin): strong cell viability reduction

CC(=O)OC1C(C)OC(OC2C(C)OC(OC(=O)C34CCC(C)(C)CC3C3=CCC5C6(C)CCC(OC7OC(C(=O)O)C(O)C(OC8OCC(O)C(O)C8O)C7OC7OC(CO)C(O)C(O)C7O)C(C)(C=NNC(=O)CCOCCOCCOCCOCCN=[N+]=[N-])C6CCC5(C)C3(C)CC4O)C(OC3OC(C)C(OC4OCC(O)C(OC5OC(CO)C(O)C(O)C5O)C4O)C(O)C3O)C2O)C(O)C1OC1OCC(O)C(O)C1O (centres unmarked)
IC50 (HeLa (EGFR+) cells; in absence of EGFdianthin): > 10 µM | Cell killing activity (+ or −) (HeLa cells [5]; [10]): + | Cell killing activity (+ or −) (HeLa cells [5]; [11]): − | IC50 (A431 (EGFR++) cells; A431, without EGFdianthin): > 10 µM

CC(=O)OC1C(C)OC(OC2C(C)OC(OC(=O)[C@]34CCC(C)(C)CC3C3=CCC5[C@@]6(C)CC[C@H](OC7OC(C(=O)O)C(O)C(OC8OCC(O)C(O)C8O)C7OC7OC(CO)C(O)C(O)C7O)[C@@](C)(/C=N/NC(=O)CCCCCN7C(=O)C=CC7=O)C6CC[C@@]5(C)[C@]3(C)C[C@H]4O)C(OC3OC(C)C(OC4OCC(O)C(OC5OC(CO)C(O)C(O)C5O)C4O)C(O)C3O)C2O)C(O)C1OC1OCC(O)C(O)C1O (some centres unmarked) [SO1861-Ald-EMCH]
IC50 (A431 cells; A-431, Table A6, saponin alone, read-out: IC50 nM (Toxicity)): 30000 nM | IC50 (A431 cells; A-431, text, saponin alone, read-out: IC50 toxicity): 30000 nM | IC50 (HeLa cells [2]; Homo sapiens, HeLa, Table A5, saponin alone, read-out: IC50 nM (Toxicity)): > 100000 nM | IC50 (HeLa cells [2]; Homo sapiens, HeLa, saponin alone, read-out: IC50 toxicity): > 100000 nM | IC50 [7]: 2 µM | Hydrolysis of the hydrazone bond [8]: gets cleaved | IC50 (A2058 (EGFR−) cells; Homo sapiens, read-out: Toxicity as single compound): > 25 µM | IC50 (human red blood cells; Table A5, read-out: IC50 nM (hemolysis)): > 1e+06 nM | IC50 (human red blood cells; Table A6, read-out: IC50 nM (hemolysis)): > 1e+06 nM | IC50 (human red blood cells; read-out: IC50 hemolytic activity): > 1e+06 nM | IC50 (HeLa (EGFR+) cells; Homo sapiens): > 25 µM | HSP27 gene silencing activity alone (HSP27 mRNA [9]): no HSP27 gene silencing activity | CMC value [3]: > 800 µM | Cell killing activity of saponin alone [4]: no cell killing activity | Cell killing activity (+ or −) (HeLa cells [5]; [10]): + | Cell killing activity (+ or −) (HeLa cells [5]; [11]): − | Cell viability after 72 h (HeLa cells [5]): reduced cell viability | Cell killing activity of saponin alone [6]: no cell killing activity | IC50 (A431 (EGFR++) cells; Homo sapiens, A-431): > 25 µM
